Among the data in the OligoGym collection are calcium oscillation score values, retold here.

Bases are written 5' to 3'; sugars and linkages follow in the same order, as letters with counts (s phosphorothioate, o phosphodiester; PS: all linkages phosphorothioate). The collection does not say whether C is 5-methylated. l = locked nucleic acid (LNA); d = 2'-deoxy (DNA)

The data set concerns the target Tau. As to the kind of experiment: rat primary cortical neurons, FLIPR, 25 uM ASO.
Take CTAATCCTGTGCTTC (sugars l3 d9 l3, PS): the calcium oscillation score was 73.1 % of control.
With CTAATCCTGTGCTTCA (sugars l3 d10 l3, PS) the figure was 100 % of control; with “CTAATGAGCCACACTTGGAG (sugars l3 d14 l3, PS)”, 46.5 % of control; with “CTAATTACATTTTTTCTT (sugars l4 d10 l4, PS)”, 63.9 % of control.
The result for “CTAATTACATTTTTTCTTT (sugars l4 d11 l4, PS)” reads 62.6 % of control; that for “CTAATTACATTTTTTCTTTT (sugars l4 d12 l4, PS)”, 60.1 % of control.
With “CTAATTCCCAAATTCCTCA (sugars l2 d14 l3, PS)” the figure was 62.1 % of control; with “CTAATTCCCAAATTCCTCAT (sugars l3 d14 l3, PS)”, 60.9 % of control; with “CTAATTTAGTCACCATC (sugars l3 d10 l4, PS)”, 83.3 % of control.
For CTACAAACCAGTTACC (sugars l3 d9 l4, PS), the calcium oscillation score was 107 % of control.
With “CTACAAACCAGTTACCA (sugars l3 d11 l3, PS)” the figure was 69.9 % of control; with “CTACACCACTGTTCCATA (sugars l1 d15 l2, PS)”, 62 % of control; with “CTACATTTTTGTCTCAT (sugars l4 d10 l3, PS)”, 65.4 % of control.
CTACCATGTCGATG (sugars l3 d8 l3, PS): the calcium oscillation score is 6.9 % of control.
The result for CTACCATGTCGATGCT (sugars l3 d10 l3, PS) reads 99.7 % of control; that for “CTACCCCATTTTTGACAT (sugars l3 d13 l2, PS)”, 48.7 % of control; that for CTACTATTTACTATGC (sugars l3 d9 l4, PS), 66.8 % of control.
With “CTACTATTTACTATGCA (sugars l4 d10 l3, PS)” the figure was 78.4 % of control.
With “CTACTTTATTCCCTTAAC (sugars l4 d11 l3, PS)” the figure was 91.3 % of control; with “CTACTTTATTCCCTTAACAA (sugars l2 d15 l3, PS)”, 86.8 % of control.
With “CTAGCCCACCCATCAATTTG (sugars l3 d14 l3, PS)”, the calcium oscillation score is 0 % of control.
The result for “CTAGTTATACAGTTGGCCCT (sugars l3 d14 l3, PS)” reads 33.3 % of control.
The result for “CTATTCCTGAATTTTTC (sugars l4 d10 l3, PS)” reads 69 % of control; that for “CTCAAAAATCAACGCCT (sugars l3 d10 l4, PS)”, 57 % of control.
With “CTCAAAATCCTTAATTTAAC (sugars l4 d12 l4, PS)” the figure was 64.4 % of control.
Turning to “CTCAAACTTAAATTTATT (sugars l4 d10 l4, PS)”, the calcium oscillation score is 82.4 % of control.
With “CTCAAACTTAAATTTATTTT (sugars l4 d12 l4, PS)” the figure was 90.7 % of control; with “CTCAAATCAAACTAATATT (sugars l4 d11 l4, PS)”, 98.6 % of control.
Take “CTCAAATCAATTCTCATTTC (sugars l4 d13 l3, PS)”: the calcium oscillation score was 62 % of control.
As to “CTCAACATTACCCTTAAATA (sugars l4 d14 l2, PS)”, the calcium oscillation score is 57.6 % of control.
With “CTCAAGAAATGGTTTGCTAC (sugars l3 d14 l3, PS)” the figure was 23.8 % of control.
The result for CTCACCCCAAACAAGA (sugars l3 d10 l3, PS) reads 65.6 % of control.
The result for “CTCACCCCAAACAAGAA (sugars l2 d11 l4, PS)” reads 45.1 % of control.
Take “CTCACTTTACACATTAAATT (sugars l4 d12 l4, PS)”: the calcium oscillation score was 59.8 % of control.
The result for “CTCAGATTTTACTTCCA (sugars l4 d11 l2, PS)” reads 45.2 % of control; that for “CTCAGATTTTACTTCCAC (sugars l4 d12 l2, PS)”, 43.1 % of control; that for “CTCAGCTAAGACCCTCAGGT (sugars l3 d14 l3, PS)”, 31.2 % of control.
On to “CTCAGCTCTTCCATAAGCAG (sugars l3 d14 l3, PS)”, for which the calcium oscillation score was 40.3 % of control.
Consider CTCAGGTCAACTGGTT (sugars l3 d10 l3, PS), for which the calcium oscillation score was 83.8 % of control.
With “CTCATCAACACCTTTTAATT (sugars l4 d14 l2, PS)” the figure was 78.7 % of control; with CTCATTGCAACTTTAAC (sugars l4 d9 l4, PS), 84.9 % of control.
The result for “CTCATTTACCAATTATCTTT (sugars l4 d14 l2, PS)” reads 64 % of control; that for “CTCATTTTTCTCAAGCTC (sugars l3 d12 l3, PS)”, 44.8 % of control.
For the sequence CTCCAATCTTACAGAT (sugars l4 d9 l3, PS), the calcium oscillation score was 102 % of control.
The result for CTCCAATTTTAAACTTA (sugars l4 d9 l4, PS) reads 66.5 % of control.
The result for “CTCCAATTTTAAACTTAA (sugars l4 d10 l4, PS)” reads 69 % of control.
With “CTCCAATTTTAAACTTAAA (sugars l4 d11 l4, PS)” the figure was 70.2 % of control; with “CTCCCATCACTAGCACT (sugars l1 d14 l2, PS)”, 38.3 % of control.
For “CTCCCTTTAATGCCAGGCCC (sugars l3 d14 l3, PS)”, the calcium oscillation score was 20.1 % of control.
The result for CTCCTAATTTTGCACT (sugars l4 d10 l2, PS) reads 44.2 % of control.
On to “CTCCTAATTTTGCACTC (sugars l3 d11 l3, PS)”, for which the calcium oscillation score is 46.7 % of control.
The result for “CTCCTAATTTTGCACTCA (sugars l3 d13 l2, PS)” reads 50.5 % of control; that for “CTCCTAGAACACAACAC (sugars l3 d10 l4, PS)”, 50.9 % of control.
With CTCCTATATTCTCAGT (sugars l3 d9 l4, PS), the calcium oscillation score is 73.7 % of control.
With CTCCTGGTTTATGATG (sugars l3 d10 l3, PS) the figure was 31.3 % of control; with “CTCCTGGTTTATGATGGATG (sugars l3 d14 l3, PS)”, 35 % of control; with CTCGCGGAAGGTCAGC (sugars l3 d10 l3, PS), 0 % of control.
With “CTCGCGGAAGGTCAGCTTGT (sugars l3 d14 l3, PS)” the figure was 2.91 % of control.
With CTCGTCAGCTAGCGTG (sugars l3 d10 l3, PS) the figure was 27.1 % of control; with “CTCTAAGTAGACCCTGGCCA (sugars l3 d14 l3, PS)”, 19.1 % of control; with CTCTCAAAAATCAACGC (sugars l4 d9 l4, PS), 66.3 % of control.
Take CTCTCTGCATATATAAT (sugars l4 d9 l4, PS): the calcium oscillation score was 72.2 % of control.
Take CTCTGGTCAAGGCTTT (sugars l3 d10 l3, PS): the calcium oscillation score was 0 % of control.
The result for “CTCTGTCACTTACTACTC (sugars l3 d13 l2, PS)” reads 80.8 % of control; that for CTCTTAGCATCAGAGG (sugars l3 d10 l3, PS), 70.4 % of control.
With “CTCTTAGCATCCACTTA (sugars l3 d12 l2, PS)” the figure was 44.5 % of control; with “CTCTTATCTTTGTTTCTA (sugars l4 d12 l2, PS)”, 51.1 % of control; with CTCTTCAAATCATTCAA (sugars l4 d9 l4, PS), 68.4 % of control.
With “CTCTTCAAATCATTCAAT (sugars l4 d10 l4, PS)” the figure was 69.7 % of control; with CTCTTCCACTACAAGC (sugars l3 d11 l2, PS), 46.2 % of control; with “CTCTTCCACTACAAGCTC (sugars l3 d13 l2, PS)”, 28.9 % of control.
With “CTCTTGACAGTCACTGCTGA (sugars l3 d14 l3, PS)”, the calcium oscillation score is 29.4 % of control.
With “CTCTTTCTTAATTCAGA (sugars l4 d10 l3, PS)” the figure was 60.1 % of control.
The result for “CTCTTTGAACACCCCATC (sugars l3 d13 l2, PS)” reads 41.9 % of control.
As to CTGAAAGAGGGCAGCA (sugars l3 d10 l3, PS), the calcium oscillation score was 36.8 % of control.
Take “CTGATCACAAACCCTGCTTG (sugars l3 d14 l3, PS)”: the calcium oscillation score was 20.3 % of control.
For “CTGATCATAATCCTACC (sugars l3 d11 l3, PS)”, the calcium oscillation score was 54.9 % of control.
Take CTGCCGGTGGAGGAGA (sugars l3 d10 l3, PS): the calcium oscillation score is 0 % of control.
The result for “CTGCTCAGCTAAGACCCTCA (sugars l3 d14 l3, PS)” reads 4.03 % of control; that for CTGGACGTTGCTAAGA (sugars l3 d10 l3, PS), 0 % of control.
With CTGGCCACCTCCTGGT (sugars l3 d10 l3, PS) the figure was 16.1 % of control; with “CTGGCCATCTTATGCTGACC (sugars l3 d14 l3, PS)”, 12.8 % of control; with CTGGTTTATGATGG (sugars l3 d8 l3, PS), 32.6 % of control.
The result for CTGGTTTATGATGGAT (sugars l3 d10 l3, PS) reads 0 % of control; that for “CTGGTTTATGATGGATGTTG (sugars l3 d14 l3, PS)”, 0 % of control; that for “CTGGTTTGTAGACTATTTGC (sugars l3 d14 l3, PS)”, 0 % of control.
For the sequence “CTGTCACTATCACTTCA (sugars l2 d11 l4, PS)”, the calcium oscillation score was 75.3 % of control.
The result for CTGTGCTTCAGGCCTT (sugars l3 d10 l3, PS) reads 51 % of control; that for “CTTAAAATTTTTCTTATTTT (sugars l4 d12 l4, PS)”, 62.8 % of control.
With “CTTAATTCATTTAATTCTCT (sugars l3 d13 l4, PS)” the figure was 90.1 % of control.
With CTTAATTTCACCCTC (sugars l3 d9 l3, PS) the figure was 122 % of control; with CTTAATTTCACCCTCA (sugars l3 d10 l3, PS), 40.3 % of control.
With “CTTACAACCAACACTGA (sugars l3 d10 l4, PS)”, the calcium oscillation score was 49.7 % of control.
The result for “CTTACACACCACACACACT (sugars l1 d16 l2, PS)” reads 100 % of control; that for “CTTACACACCACACACACTC (sugars l1 d17 l2, PS)”, 88.5 % of control.
For CTTACACATAGCTTCT (sugars l4 d8 l4, PS), the calcium oscillation score is 47.1 % of control.
